Experimental data taken from the supplement of paper PMC10307832.

Columns and labels:
Assay in all cases: relative viability (nuclei count vs DMSO), 5 days (fraction); higher = more cells survive
NCI-H1651 = test system: NCI-H1651
Procedure, shortened: (§1)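 Nuclei were stained with Hoechst during a one-step fixation (final 0.05% Triton X-100, 1% formaldehyde, 1 ug/ml Hoechst) carried out 5 days after dosing, then counted on 4× images. The cells, lung cancer lines in 1536-well plates, had been dosed by pin tool the day after seeding with one drug alone or a fixed anchor-drug dose plus five library-drug doses (not always all listed) in √10 steps. Relative viability is the nuclei count in treated wells divided by that in vehicle wells, and each value is the median of duplicate plates.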

SW 1573 = test system: SW 1573
Procedure, shortened: as §1

NCI-H1944 = test system: NCI-H1944
Procedure, shortened: as §1

ChaGo-K-1 = test system: ChaGo-K-1
Procedure, shortened: as §1

NCI-H2087 = test system: NCI-H2087
Procedure, shortened: as §1

NCI-H3122 = test system: NCI-H3122
Procedure, shortened: as §1

LCLC-97TM1 = test system: LCLC-97TM1
Procedure, shortened: as §1

EMC-BAC-2 = test system: EMC-BAC-2
Procedure, shortened: as §1

PC-14 = test system: PC-14
Procedure, shortened: as §1

UMC-11 = test system: UMC-11
Procedure, shortened: as §1

NCI-H2405 = test system: NCI-H2405
Procedure, shortened: as §1

NCI-H661 = test system: NCI-H661
Procedure, shortened: as §1

NCI-H650 = test system: NCI-H650
Procedure, shortened: as §1

NCI-H596 = test system: NCI-H596
Procedure, shortened: as §1

NCI-H2023 = test system: NCI-H2023
Procedure, shortened: as §1

NCI-H1915 = test system: NCI-H1915
Procedure, shortened: as §1

NCI-H322M = test system: NCI-H322M
Procedure, shortened: as §1

NCI-H2126 = test system: NCI-H2126
Procedure, shortened: as §1

NCI-H838 = test system: NCI-H838
Procedure, shortened: as §1

NCI-H1734 = test system: NCI-H1734
Procedure, shortened: as §1

NCI-H441 = test system: NCI-H441
Procedure, shortened: as §1

LXF-289 = test system: LXF-289
Procedure, shortened: as §1

NCI-H1793 = test system: NCI-H1793
Procedure, shortened: as §1

NCI-H1395 = test system: NCI-H1395
Procedure, shortened: as §1

Structure (SMILES): Nc1cccc2c1CN(C1CCC(=O)NC1=O)C2=O (stereo not drawn) [Lenalidomide] + COc1cc2c(Oc3ccc(NC(=O)C4(C(=O)Nc5ccc(F)cc5)CC4)cc3F)ccnc2cc1OCCCN1CCOCC1 [Foretinib] (partner 0.25 µM)
- relative viability (NCI-H1651; first compound 0.253 µM): 0.837
- relative viability (NCI-H1651; first compound 0.8 µM): 0.963
- relative viability (NCI-H1651; first compound 2.53 µM): 0.914
- relative viability (NCI-H1651; first compound 8 µM): 0.804
- relative viability (SW 1573; first compound 0.253 µM): 0.971
- relative viability (SW 1573; first compound 0.8 µM): 1.15
- relative viability (SW 1573; first compound 2.53 µM): 0.95
- relative viability (SW 1573; first compound 8 µM): 0.877
- relative viability (NCI-H1944; first compound 0.253 µM): 0.871
- relative viability (NCI-H1944; first compound 0.8 µM): 0.905
- relative viability (NCI-H1944; first compound 2.53 µM): 0.911
- relative viability (NCI-H1944; first compound 8 µM): 0.848
- relative viability (ChaGo-K-1; first compound 0.253 µM): 0.949
- relative viability (ChaGo-K-1; first compound 0.8 µM): 0.873
- relative viability (ChaGo-K-1; first compound 2.53 µM): 0.975
- relative viability (ChaGo-K-1; first compound 8 µM): 1.06
- relative viability (NCI-H2087; first compound 0.253 µM): 0.801
- relative viability (NCI-H2087; first compound 0.8 µM): 1.17
- relative viability (NCI-H2087; first compound 2.53 µM): 1.17
- relative viability (NCI-H2087; first compound 8 µM): 1.28
- relative viability (NCI-H3122; first compound 0.253 µM): 0.98
- relative viability (NCI-H3122; first compound 0.8 µM): 1.04
- relative viability (NCI-H3122; first compound 2.53 µM): 0.915
- relative viability (NCI-H3122; first compound 8 µM): 1.02
- relative viability (LCLC-97TM1; first compound 0.253 µM): 0.906
- relative viability (LCLC-97TM1; first compound 0.8 µM): 0.991
- relative viability (LCLC-97TM1; first compound 2.53 µM): 1
- relative viability (LCLC-97TM1; first compound 8 µM): 0.947
- relative viability (EMC-BAC-2; first compound 0.253 µM): 1
- relative viability (EMC-BAC-2; first compound 0.8 µM): 0.967
- relative viability (EMC-BAC-2; first compound 2.53 µM): 1.04
- relative viability (EMC-BAC-2; first compound 8 µM): 0.885
- relative viability (PC-14; first compound 0.253 µM): 0.945
- relative viability (PC-14; first compound 0.8 µM): 1.02
- relative viability (PC-14; first compound 2.53 µM): 1.01
- relative viability (PC-14; first compound 8 µM): 0.982
- relative viability (UMC-11; first compound 0.253 µM): 1.02
- relative viability (UMC-11; first compound 0.8 µM): 1.07
- relative viability (UMC-11; first compound 2.53 µM): 1.06
- relative viability (UMC-11; first compound 8 µM): 0.953
- relative viability (NCI-H2405; first compound 0.253 µM): 1.02
- relative viability (NCI-H2405; first compound 0.8 µM): 0.951
- relative viability (NCI-H2405; first compound 2.53 µM): 1.11
- relative viability (NCI-H2405; first compound 8 µM): 1.01
- relative viability (NCI-H661; first compound 0.253 µM): 0.996
- relative viability (NCI-H661; first compound 0.8 µM): 0.983
- relative viability (NCI-H661; first compound 2.53 µM): 1.01
- relative viability (NCI-H661; first compound 8 µM): 0.994
- relative viability (NCI-H650; first compound 0.253 µM): 1.02
- relative viability (NCI-H650; first compound 2.53 µM): 1.14
- relative viability (NCI-H650; first compound 8 µM): 1.01
- relative viability (NCI-H596; first compound 0.253 µM): 0.799
- relative viability (NCI-H596; first compound 2.53 µM): 0.908
- relative viability (NCI-H596; first compound 8 µM): 0.789
- relative viability (NCI-H2023; first compound 0.253 µM): 0.89
- relative viability (NCI-H2023; first compound 0.8 µM): 1.19
- relative viability (NCI-H2023; first compound 2.53 µM): 0.753
- relative viability (NCI-H2023; first compound 8 µM): 0.931
- relative viability (NCI-H1915; first compound 0.253 µM): 1.07
- relative viability (NCI-H1915; first compound 0.8 µM): 1.03
- relative viability (NCI-H1915; first compound 2.53 µM): 1.14
- relative viability (NCI-H1915; first compound 8 µM): 1.14
- relative viability (NCI-H322M; first compound 0.253 µM): 0.962
- relative viability (NCI-H322M; first compound 0.8 µM): 1.05
- relative viability (NCI-H322M; first compound 2.53 µM): 1.11
- relative viability (NCI-H322M; first compound 8 µM): 0.902
- relative viability (NCI-H2126; first compound 0.253 µM): 1.33
- relative viability (NCI-H2126; first compound 0.8 µM): 1.13
- relative viability (NCI-H2126; first compound 2.53 µM): 1.39
- relative viability (NCI-H2126; first compound 8 µM): 1.14
- relative viability (NCI-H838; first compound 0.253 µM): 1.11
- relative viability (NCI-H838; first compound 0.8 µM): 0.965
- relative viability (NCI-H838; first compound 2.53 µM): 1.15
- relative viability (NCI-H838; first compound 8 µM): 1.2
- relative viability (NCI-H1734; first compound 0.253 µM): 0.894
- relative viability (NCI-H1734; first compound 0.8 µM): 0.776
- relative viability (NCI-H1734; first compound 2.53 µM): 0.932
- relative viability (NCI-H1734; first compound 8 µM): 0.809
- relative viability (NCI-H441; first compound 0.253 µM): 1
- relative viability (NCI-H441; first compound 0.8 µM): 0.722
- relative viability (NCI-H441; first compound 2.53 µM): 1.16
- relative viability (NCI-H441; first compound 8 µM): 0.795
- relative viability (LXF-289; first compound 0.253 µM): 0.977
- relative viability (LXF-289; first compound 0.8 µM): 1.01
- relative viability (LXF-289; first compound 2.53 µM): 1.07
- relative viability (LXF-289; first compound 8 µM): 1.09
- relative viability (NCI-H1793; first compound 0.253 µM): 0.706
- relative viability (NCI-H1793; first compound 2.53 µM): 1.04
- relative viability (NCI-H1793; first compound 8 µM): 0.655
- relative viability (NCI-H1395; first compound 0.253 µM): 0.958
- relative viability (NCI-H1395; first compound 0.8 µM): 1.09
- relative viability (NCI-H1395; first compound 2.53 µM): 1.11
- relative viability (NCI-H1395; first compound 8 µM): 0.822
